Laboratory results as given in ChEMBL document CHEMBL1121624, “Synthesis, biological evaluation, and preliminary structure-activity considerations of a series of alkylphenols as intravenous anesthetic agents” (J Med Chem, 1980).

How the values were obtained:
[1] = species: Mus musculus; assay: Hypnotic activity was measured as dose which causes loss of righting reflex for a minimum period of 30s in 50% of mice; assay type: functional
[2] = Acute toxicity measured as median lethal dose in mice; Range is 160-180; assay type: organism-based; conditions: mouse, in vivo
[3] = species: Mus musculus; assay: Speed of induction of analgesia in mice was determined; I = immediate, <10 s; assay type: functional, organism-based
[4] = species: Mus musculus; assay: Duration of analgesic action in mice was determined; B = brief, < 5 min; assay type: functional, organism-based
[5] = Acute toxicity measured as median lethal dose in mice; Range is 100-120; assay type: organism-based; conditions: mouse, in vivo
[6] = species: Mus musculus; assay: Hypnotic activity was measured as dose which causes loss of righting reflex for a minimum period of 30s in 50% of mice; Range is 10-20; assay type: functional
[7] = Acute toxicity measured as median lethal dose in mice; Range is 40-60; assay type: organism-based; conditions: mouse, in vivo
[8] = species: Mus musculus; assay: Hypnotic activity was measured as dose which causes loss of righting reflex for a minimum period of 30s in 50% of mice; Range is 30-40; assay type: functional
[9] = species: Mus musculus; assay: Hypnotic activity was measured as dose which causes loss of righting reflex for a minimum period of 30s in 50% of mice; Range is 15-20; assay type: functional
[10] = species: Mus musculus; assay: Duration of analgesic action in mice was determined; L = long, >10; assay type: functional, organism-based
[11] = species: Mus musculus; assay: Speed of induction of analgesia in mice was determined; VS = very slow, > 15s; assay type: functional, organism-based
[12] = Acute toxicity measured as median lethal dose in mice; assay type: organism-based; conditions: mouse, in vivo
[13] = species: Mus musculus; assay: Hypnotic activity was measured as dose which causes loss of righting reflex for a minimum period of 30s in 50% of mice; Range is 5-10; assay type: functional
[14] = species: Mus musculus; assay: Hypnotic activity was measured as dose which causes loss of righting reflex for a minimum period of 30s in 50% of mice; Range is 10-15; assay type: functional
[15] = species: Mus musculus; assay: Acute toxicity measured as median lethal dose in mice; Range is 80-90; assay type: organism-based; conditions: in vivo
[16] = Acute toxicity measured as median lethal dose in mice; Range is 80-100; assay type: organism-based; conditions: mouse, in vivo
[17] = Acute toxicity measured as median lethal dose in mice; Range is 60-80; assay type: organism-based; conditions: mouse, in vivo
[18] = species: Mus musculus; assay: Hypnotic activity was measured as dose which causes loss of righting reflex for a minimum period of 30s in 50% of mice; Range is 20-30; assay type: functional
[19] = species: Mus musculus; assay: Hypnotic activity was measured as dose which causes loss of righting reflex for a minimum period of 30s in 50% of mice; Range is 60-80; assay type: functional
[20] = species: Mus musculus; assay: Speed of induction of analgesia in mice was determined; S = slow, 10-15 s; assay type: functional, organism-based
[21] = species: Mus musculus; assay: Hypnotic activity was measured as dose which causes loss of righting reflex for a minimum period of 30s in 50% of mice; Range is 80-100; assay type: functional
[22] = species: Mus musculus; assay: Duration of analgesic action in mice was determined; M = moderate, 5-10 min; assay type: functional, organism-based
[23] = species: Mus musculus; assay: Hypnotic activity was measured as dose which causes loss of righting reflex for a minimum period of 30s in 50% of mice; Range is 20-40; assay type: functional
[24] = Acute toxicity measured as median lethal dose in mice; Range is 120-140; assay type: organism-based; conditions: mouse, in vivo
[25] = species: Mus musculus; assay: Hypnotic activity was measured as dose which causes loss of righting reflex for a minimum period of 30s in 50% of mice; Range is 40-60; assay type: functional
[26] = Acute toxicity measured as median lethal dose in mice; Range is 40-45; assay type: organism-based; conditions: mouse, in vivo
[27] = species: Mus musculus; assay: Hypnotic activity was measured as dose which causes loss of righting reflex for a minimum period of 30s in 50% of mice; Range is 1-1.5; assay type: functional

SMILES: Cc1cc(C)c(C(C)C)c(O)c1C(C)C
- HD50 [1]: 120 mg/kg
- LD50 [2]: 160 mg/kg

SMILES: CCCC(C)c1cccc(CC)c1O (configuration not stated)
- Speed of induction [3]: Immediate
- Duration of action [4]: Brief duration
- LD50 [5]: 100 mg/kg
- HD50 [6]: 10 mg/kg

SMILES: CC(C)c1ccc(O)cc1
- LD50 [7]: 40 mg/kg
- HD50 [8]: 30 mg/kg

SMILES: Cc1ccc(C(C)C)c(O)c1 [THYMOL]
- HD50 [1]: 30 mg/kg

SMILES: CCCCCC(C)c1cccc(C)c1O (configuration not stated)
- HD50 [9]: 15 mg/kg
- Duration of action [10]: Long
- Speed of induction [11]: Very slow
- LD50 [12]: 100 mg/kg

SMILES: CCC(C)c1cccc(C(C)C)c1O (configuration not stated)
- Speed of induction [3]: Immediate
- Duration of action [4]: Brief duration
- LD50 [12]: 50 mg/kg
- HD50 [13]: 5 mg/kg

SMILES: CCc1cccc(C(C)CC)c1O (configuration not stated)
- Speed of induction [3]: Immediate
- Duration of action [4]: Brief duration
- LD50 [12]: 80 mg/kg
- HD50 [14]: 10 mg/kg

SMILES: C=CCC1(C(C)C#CCC)C(=O)N=C([O-])N(C)C1=O.[Na+] (configuration not stated) [METHOHEXITAL SODIUM]
- LD50 [12]: 30 mg/kg
- HD50 [13]: 5 mg/kg

SMILES: Cc1c(C(C)C)ccc(C(C)C)c1O
- HD50 [1]: 20 mg/kg
- LD50 [12]: 100 mg/kg

SMILES: CCCC(C)C1(CC)C(=O)[N-]C(=S)NC1=O.[Na+] (stereo in doubt; form 1) [THIOPENTAL SODIUM]
- LD50 [15]: 80 mg/kg

SMILES: Cc1ccc(C(C)C)cc1O [CARVACROL]
- LD50 [16]: 80 mg/kg
- HD50 [8]: 30 mg/kg

SMILES: CCc1cccc(C(C)C)c1O
- Speed of induction [3]: Immediate
- HD50 [9]: 15 mg/kg
- Duration of action [4]: Brief duration
- LD50 [17]: 60 mg/kg

SMILES: Cc1cccc(C(C)C)c1O
- Speed of induction [3]: Immediate
- HD50 [18]: 20 mg/kg
- Duration of action [4]: Brief duration
- LD50 [12]: 80 mg/kg

SMILES: CCc1c(C)cc(C)c(CC)c1O
- HD50 [19]: 60 mg/kg
- LD50 [12]: 160 mg/kg

SMILES: CNC1(c2ccccc2Cl)CCCCC1=O.Cl (configuration not stated) [KETAMINE HYDROCHLORIDE]
- Duration of action [4]: Brief duration
- LD50 [12]: 60 mg/kg
- HD50 [14]: 10 mg/kg
- Speed of induction [20]: Slow

SMILES: Cc1cc(C(C)(C)C)c(O)c(C(C)(C)C)c1 [BUTYLATED HYDROXYTOLUENE]
- HD50 [21]: 80 mg/kg

SMILES: CCCC(C)c1cccc(C(C)CCC)c1O (configuration not stated)
- HD50 [9]: 15 mg/kg
- Duration of action [10]: Long
- Speed of induction [11]: Very slow
- LD50 [2]: 160 mg/kg

SMILES: CCCCC(C)c1cccc(CCC)c1O (configuration not stated)
- HD50 [1]: 50 mg/kg
- Duration of action [22]: Moderate
- Speed of induction [11]: Very slow
- LD50 [12]: 140 mg/kg

SMILES: CC(C)c1ccccc1O
- LD50 [5]: 100 mg/kg
- HD50 [8]: 30 mg/kg

SMILES: Cc1cc(C(C)C)c(O)c(C(C)C)c1
- HD50 [1]: 20 mg/kg
- LD50 [16]: 80 mg/kg

SMILES: CCCC(C)c1ccccc1O (configuration not stated)
- HD50 [18]: 20 mg/kg
- LD50 [12]: 100 mg/kg

SMILES: CCCCc1cccc(C(C)CC)c1O (configuration not stated)
- Duration of action [22]: Moderate
- HD50 [18]: 20 mg/kg
- Speed of induction [11]: Very slow
- LD50 [12]: 120 mg/kg

SMILES: CCC(C)c1cccc(C2CC2)c1O (configuration not stated)
- HD50 [23]: 20 mg/kg
- Duration of action [4]: Brief duration
- Speed of induction [20]: Slow
- LD50 [24]: 120 mg/kg

SMILES: Cc1ccc(O)c(C(C)(C)C)c1
- HD50 [1]: 30 mg/kg

SMILES: CC(C)(C)c1cccc(C(C)(C)C)c1O
- HD50 [21]: 80 mg/kg
- LD50 [12]: 120 mg/kg

SMILES: CCC(C)c1ccccc1O (configuration not stated)
- HD50 [8]: 30 mg/kg

SMILES: CC(C)c1ccc(O)c(C(C)C)c1
- HD50 [25]: 40 mg/kg
- LD50 [12]: 120 mg/kg

SMILES: CCOC(=O)c1cncn1[C@H](C)c1ccccc1 [ETOMIDATE]
- Speed of induction [3]: Immediate induction
- LD50 [26]: 40 mg/kg
- Duration of action [4]: Brief duration
- HD50 [27]: 1 mg/kg

SMILES: CC(C)(C)c1ccc(O)c(C(C)(C)C)c1
- HD50 [25]: 40 mg/kg
- LD50 [5]: 100 mg/kg
